Laboratory results from PubChem BioAssay (NCI).
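Abbreviation: GI50, concentration required for 50% inhibition of growth. The concentration for full growth arrest is given as TGI.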

Columns and labels:
Experiment in all cases: growth of human tumour cells (NCI), 384-well format
SK-OV-3 ovarian = test system: SK-OV-3 ovarian
OVCAR-8 ovarian = test system: OVCAR-8 ovarian
U251 glioblastoma = test system: U251 glioblastoma
SN12C renal = test system: SN12C renal
MALME-3M melanoma = test system: MALME-3M melanoma
HS 578T breast = test system: HS 578T breast
LOX IMVI melanoma = test system: LOX IMVI melanoma
TK-10 renal = test system: TK-10 renal
UACC-257 melanoma = test system: UACC-257 melanoma
OVCAR-5 ovarian = test system: OVCAR-5 ovarian
DU-145 prostate = test system: DU-145 prostate
786-0 renal = test system: 786-0 renal
RXF 393 renal = test system: RXF 393 renal
ACHN renal = test system: ACHN renal
T-47D breast = test system: T-47D breast
BT-549 breast = test system: BT-549 breast
HT29 colon = test system: HT29 colon
KM12 colon = test system: KM12 colon
UO-31 renal = test system: UO-31 renal
IGROV1 ovarian = test system: IGROV1 ovarian
NCI-H322M lung = test system: NCI-H322M lung
MCF7 breast = test system: MCF7 breast
MDA-MB-435 melanoma = test system: MDA-MB-435 melanoma
NCI-H522 lung = test system: NCI-H522 lung
SK-MEL-5 melanoma = test system: SK-MEL-5 melanoma
NCI-H226 lung = test system: NCI-H226 lung
MDA-MB-468 breast = test system: MDA-MB-468 breast
A549 NSCLC = test system: A549 NSCLC
SNB-75 CNS = test system: SNB-75 CNS
M14 melanoma = test system: M14 melanoma
SF-295 CNS = test system: SF-295 CNS
HL-60(TB) leukemia = test system: HL-60(TB) leukemia
OVCAR-3 ovarian = test system: OVCAR-3 ovarian
MOLT-4 leukemia = test system: MOLT-4 leukemia
SNB-19 CNS = test system: SNB-19 CNS
PC-3 prostate = test system: PC-3 prostate
A498 renal = test system: A498 renal
HCT-15 colon = test system: HCT-15 colon
OVCAR-4 ovarian = test system: OVCAR-4 ovarian
SF-539 CNS = test system: SF-539 CNS
RPMI-8226 leukemia = test system: RPMI-8226 leukemia
SK-MEL-28 melanoma = test system: SK-MEL-28 melanoma
HCC-2998 colon = test system: HCC-2998 colon
SF-268 CNS = test system: SF-268 CNS
CAKI-1 renal = test system: CAKI-1 renal
HOP-92 NSCLC = test system: HOP-92 NSCLC
CCRF-CEM leukemia = test system: CCRF-CEM leukemia
K-562 leukemia = test system: K-562 leukemia
NCI/ADR-RES ovarian = test system: NCI/ADR-RES ovarian
HOP-62 NSCLC = test system: HOP-62 NSCLC
EKVX NSCLC = test system: EKVX NSCLC
HCT-116 colon = test system: HCT-116 colon
SW-620 colon = test system: SW-620 colon
NCI-H23 lung = test system: NCI-H23 lung
NCI-H460 NSCLC = test system: NCI-H460 NSCLC
MDA-MB-231 breast = test system: MDA-MB-231 breast
COLO 205 colon = test system: COLO 205 colon
UACC-62 melanoma = test system: UACC-62 melanoma

COc1c(Nc2ncc(Cl)c(N[C@@H]3[C@H]4C=CC(C4)[C@@H]3C(N)=O)n2)ccc2c1CC[C@@H](N1CCOCC1)CC2
GI50 (SK-OV-3 ovarian): 1780 nM | TGI (SK-OV-3 ovarian): 7550 nM | GI50 (OVCAR-8 ovarian): 2700 nM | TGI (OVCAR-8 ovarian): 9480 nM | GI50 (U251 glioblastoma): 1760 nM | TGI (U251 glioblastoma): 6500 nM | GI50 (SN12C renal): 1190 nM | TGI (SN12C renal): 5330 nM | GI50 (MALME-3M melanoma): 866 nM | TGI (MALME-3M melanoma): 2660 nM | GI50 (HS 578T breast): 1560 nM | TGI (HS 578T breast): 2970 nM | GI50 (LOX IMVI melanoma): 1330 nM | TGI (LOX IMVI melanoma): 2680 nM | GI50 (TK-10 renal): 2290 nM | TGI (TK-10 renal): 7860 nM | GI50 (UACC-257 melanoma): 1510 nM | TGI (UACC-257 melanoma): 3530 nM | GI50 (OVCAR-5 ovarian): 1350 nM | TGI (OVCAR-5 ovarian): 4580 nM | GI50 (DU-145 prostate): 2880 nM | TGI (DU-145 prostate): 12300 nM | GI50 ([…]-0 renal): 1480 nM | TGI (786-0 renal): 2940 nM | GI50 (RXF 393 renal): 1580 nM | TGI (RXF 393 renal): 3170 nM | GI50 (ACHN renal): 2160 nM | TGI (ACHN renal): 9250 nM | GI50 (T-47D breast): 1940 nM | TGI (T-47D breast): 5310 nM | GI50 (BT-549 breast): 1620 nM | TGI (BT-549 breast): 3160 nM | GI50 (HT29 colon): 1240 nM | TGI (HT29 colon): 2580 nM | GI50 (KM12 colon): 1680 nM | TGI (KM12 colon): 10400 nM | GI50 (UO-31 renal): 1560 nM | TGI (UO-31 renal): 4900 nM | GI50 (IGROV1 ovarian): 1400 nM | TGI (IGROV1 ovarian): 9590 nM | GI50 (NCI-H322M lung): 2750 nM | TGI (NCI-H322M lung): 11500 nM | GI50 (MCF7 breast): 1750 nM | TGI (MCF7 breast): 11900 nM | GI50 (MDA-MB-435 melanoma): 1700 nM | TGI (MDA-MB-435 melanoma): 8330 nM | GI50 (NCI-H522 lung): 1440 nM | TGI (NCI-H522 lung): 3700 nM | GI50 (SK-MEL-5 melanoma): 1370 nM | TGI (SK-MEL-5 melanoma): 6790 nM | GI50 (NCI-H226 lung): 676 nM | TGI (NCI-H226 lung): 4670 nM | GI50 (MDA-MB-468 breast): 1280 nM | TGI (MDA-MB-468 breast): 2990 nM | GI50 (A549 NSCLC): 1270 nM | TGI (A549 NSCLC): 5570 nM | GI50 (SNB-75 CNS): 1290 nM | TGI (SNB-75 CNS): 2770 nM | GI50 (M14 melanoma): 817 nM | TGI (M14 melanoma): 2570 nM | GI50 (SF-295 CNS): 1950 nM | TGI (SF-295 CNS): 10300 nM | GI50 (HL-60(TB) leukemia): 1550 nM | TGI (HL-60(TB) leukemia): 3010 nM | GI50 (OVCAR-3 ovarian): 3110 nM | TGI (OVCAR-3 ovarian): 11800 nM | GI50 (MOLT-4 leukemia): 311 nM | TGI (MOLT-4 leukemia): 1430 nM | GI50 (SNB-19 CNS): 5100 nM | TGI (SNB-19 CNS): 17400 nM | GI50 (PC-3 prostate): 2270 nM | TGI (PC-3 prostate): 8980 nM | GI50 (A498 renal): 1950 nM | TGI (A498 renal): 10600 nM | GI50 (HCT-15 colon): 2150 nM | TGI (HCT-15 colon): 10100 nM | GI50 (OVCAR-4 ovarian): 7050 nM | TGI (OVCAR-4 ovarian): 19600 nM | GI50 (SF-539 CNS): 1250 nM | TGI (SF-539 CNS): 2570 nM | GI50 (RPMI-8226 leukemia): 1210 nM | TGI (RPMI-8226 leukemia): 3000 nM | GI50 (SK-MEL-28 melanoma): 1540 nM | TGI (SK-MEL-28 melanoma): 5220 nM | GI50 (HCC-2998 colon): 1240 nM | TGI (HCC-2998 colon): 3090 nM | GI50 (SF-268 CNS): 206 nM | TGI (SF-268 CNS): 2500 nM | GI50 (CAKI-1 renal): 1350 nM | TGI (CAKI-1 renal): 2780 nM | GI50 (HOP-92 NSCLC): 1300 nM | TGI (HOP-92 NSCLC): 3260 nM | GI50 (CCRF-CEM leukemia): 1510 nM | TGI (CCRF-CEM leukemia): 3030 nM | GI50 (K-562 leukemia): 1780 nM | TGI (K-562 leukemia): 3680 nM | GI50 (NCI/ADR-RES ovarian): 1970 nM | TGI (NCI/ADR-RES ovarian): 4660 nM | GI50 (HOP-62 NSCLC): 1700 nM | TGI (HOP-62 NSCLC): 5360 nM | GI50 (EKVX NSCLC): 1500 nM | TGI (EKVX NSCLC): 4530 nM | GI50 (HCT-116 colon): 1270 nM | TGI (HCT-116 colon): 2620 nM | GI50 (SW-620 colon): 1660 nM | TGI (SW-620 colon): 3250 nM | GI50 (NCI-H23 lung): 1680 nM | TGI (NCI-H23 lung): 5940 nM | GI50 (NCI-H460 NSCLC): 1960 nM | TGI (NCI-H460 NSCLC): 5260 nM | GI50 (MDA-MB-231 breast): 1540 nM | TGI (MDA-MB-231 breast): 6140 nM | GI50 (COLO 205 colon): 1110 nM | TGI (COLO 205 colon): 2690 nM | GI50 (UACC-62 melanoma): 688 nM | TGI (UACC-62 melanoma): 2920 nM
